Results taken from ChEMBL document CHEMBL5291721, “A preclinical secondary pharmacology resource illuminates target-adverse drug reaction associations of marketed drugs” (Nat Commun, 2023).

Key:
[1] = molecular target: Sodium-dependent noradrenaline transporter (Homo sapiens, UniProt P23975)
Mu-type opioid receptor = Mu-type opioid receptor (Homo sapiens, UniProt P35372)
[2] = molecular target: Prostaglandin G/H synthase 1 (Homo sapiens, UniProt P23219); type: functional
Progesterone receptor = molecular target: T1, Progesterone receptor (Homo sapiens, UniProt P06401)
T1 sequence (P06401 whole entry): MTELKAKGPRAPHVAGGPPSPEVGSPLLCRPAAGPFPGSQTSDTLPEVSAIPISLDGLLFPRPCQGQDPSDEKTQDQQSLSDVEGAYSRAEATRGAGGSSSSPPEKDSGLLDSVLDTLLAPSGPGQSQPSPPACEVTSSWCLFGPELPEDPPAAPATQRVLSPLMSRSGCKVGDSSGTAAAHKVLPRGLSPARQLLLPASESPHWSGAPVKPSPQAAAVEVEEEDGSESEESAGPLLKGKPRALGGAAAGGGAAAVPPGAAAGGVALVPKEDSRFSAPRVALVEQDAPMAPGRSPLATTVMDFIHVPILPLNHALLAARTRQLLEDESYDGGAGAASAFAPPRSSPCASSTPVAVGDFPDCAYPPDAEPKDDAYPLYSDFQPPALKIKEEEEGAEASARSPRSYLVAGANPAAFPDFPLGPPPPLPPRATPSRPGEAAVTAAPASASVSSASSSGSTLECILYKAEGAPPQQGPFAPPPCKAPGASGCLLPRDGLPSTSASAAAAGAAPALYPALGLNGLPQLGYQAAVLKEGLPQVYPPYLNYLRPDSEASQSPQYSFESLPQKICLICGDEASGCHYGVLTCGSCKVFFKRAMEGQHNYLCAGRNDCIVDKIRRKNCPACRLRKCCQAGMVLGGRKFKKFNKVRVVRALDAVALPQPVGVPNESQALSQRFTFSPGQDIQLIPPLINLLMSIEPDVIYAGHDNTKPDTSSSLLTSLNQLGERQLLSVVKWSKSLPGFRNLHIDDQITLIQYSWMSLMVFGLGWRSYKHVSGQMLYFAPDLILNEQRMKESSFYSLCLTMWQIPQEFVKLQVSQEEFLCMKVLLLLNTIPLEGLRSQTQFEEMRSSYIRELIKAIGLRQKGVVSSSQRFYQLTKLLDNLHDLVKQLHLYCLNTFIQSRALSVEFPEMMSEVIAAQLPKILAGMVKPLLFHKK

Adenosine receptor A3 = molecular target: T2, Adenosine receptor A3 (Homo sapiens, UniProt P0DMS8)
T2 sequence (P0DMS8 whole entry): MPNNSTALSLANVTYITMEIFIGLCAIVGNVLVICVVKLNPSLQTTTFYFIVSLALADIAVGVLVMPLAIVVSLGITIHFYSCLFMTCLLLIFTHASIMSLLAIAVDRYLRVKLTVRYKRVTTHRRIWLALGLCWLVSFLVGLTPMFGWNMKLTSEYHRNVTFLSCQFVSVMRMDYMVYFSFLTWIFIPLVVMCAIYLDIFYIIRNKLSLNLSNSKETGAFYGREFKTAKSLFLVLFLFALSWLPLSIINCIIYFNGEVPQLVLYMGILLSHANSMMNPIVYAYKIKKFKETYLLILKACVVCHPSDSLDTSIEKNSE

Histamine H3 receptor = Histamine H3 receptor (Homo sapiens, UniProt Q9Y5N1)
Sequence of Histamine H3 receptor (Q9Y5N1 whole entry): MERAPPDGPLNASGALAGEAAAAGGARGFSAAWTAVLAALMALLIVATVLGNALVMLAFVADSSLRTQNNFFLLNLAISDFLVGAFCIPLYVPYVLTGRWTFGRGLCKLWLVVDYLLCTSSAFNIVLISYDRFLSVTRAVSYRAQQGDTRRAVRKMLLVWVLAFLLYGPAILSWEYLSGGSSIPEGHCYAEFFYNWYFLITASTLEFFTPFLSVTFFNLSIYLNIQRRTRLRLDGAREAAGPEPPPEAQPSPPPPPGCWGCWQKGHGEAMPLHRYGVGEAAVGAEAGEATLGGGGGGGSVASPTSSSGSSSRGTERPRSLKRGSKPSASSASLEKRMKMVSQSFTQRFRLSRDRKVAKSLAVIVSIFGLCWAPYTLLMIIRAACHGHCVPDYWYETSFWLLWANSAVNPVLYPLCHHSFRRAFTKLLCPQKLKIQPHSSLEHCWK

Prothrombin = Prothrombin (Homo sapiens, UniProt P00734); type: functional
[3] = molecular target: T3, Alpha-1A adrenergic receptor (Homo sapiens, UniProt P35348); type: functional, cell-based
T3 sequence (P35348 whole entry): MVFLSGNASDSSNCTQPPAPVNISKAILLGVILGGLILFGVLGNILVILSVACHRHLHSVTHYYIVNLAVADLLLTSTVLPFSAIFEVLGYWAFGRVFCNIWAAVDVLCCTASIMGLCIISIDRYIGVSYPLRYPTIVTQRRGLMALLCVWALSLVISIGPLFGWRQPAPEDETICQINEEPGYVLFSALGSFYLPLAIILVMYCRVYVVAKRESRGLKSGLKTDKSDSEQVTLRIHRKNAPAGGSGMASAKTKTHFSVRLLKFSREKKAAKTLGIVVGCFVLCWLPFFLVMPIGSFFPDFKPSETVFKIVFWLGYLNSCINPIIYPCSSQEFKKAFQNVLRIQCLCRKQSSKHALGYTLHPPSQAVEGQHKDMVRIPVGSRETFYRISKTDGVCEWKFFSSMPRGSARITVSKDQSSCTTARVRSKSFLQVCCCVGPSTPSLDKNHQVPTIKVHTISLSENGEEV

Thromboxane A2 receptor = molecular target: T4, Thromboxane A2 receptor (Homo sapiens, UniProt P21731); type: functional, cell-based
T4 sequence (P21731 whole entry): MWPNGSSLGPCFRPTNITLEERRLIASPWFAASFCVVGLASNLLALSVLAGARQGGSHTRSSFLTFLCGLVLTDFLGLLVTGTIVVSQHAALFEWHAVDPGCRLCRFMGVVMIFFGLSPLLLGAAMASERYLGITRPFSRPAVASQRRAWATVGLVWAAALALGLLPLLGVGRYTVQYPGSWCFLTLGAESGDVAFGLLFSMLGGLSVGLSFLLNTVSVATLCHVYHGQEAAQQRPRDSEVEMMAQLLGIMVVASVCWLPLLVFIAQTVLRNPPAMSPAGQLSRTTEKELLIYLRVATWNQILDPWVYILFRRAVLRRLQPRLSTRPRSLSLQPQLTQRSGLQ

[4] = molecular target: T5, Muscarinic acetylcholine receptor M1 (Homo sapiens, UniProt P11229); type: functional, cell-based
T5 sequence (P11229 whole entry): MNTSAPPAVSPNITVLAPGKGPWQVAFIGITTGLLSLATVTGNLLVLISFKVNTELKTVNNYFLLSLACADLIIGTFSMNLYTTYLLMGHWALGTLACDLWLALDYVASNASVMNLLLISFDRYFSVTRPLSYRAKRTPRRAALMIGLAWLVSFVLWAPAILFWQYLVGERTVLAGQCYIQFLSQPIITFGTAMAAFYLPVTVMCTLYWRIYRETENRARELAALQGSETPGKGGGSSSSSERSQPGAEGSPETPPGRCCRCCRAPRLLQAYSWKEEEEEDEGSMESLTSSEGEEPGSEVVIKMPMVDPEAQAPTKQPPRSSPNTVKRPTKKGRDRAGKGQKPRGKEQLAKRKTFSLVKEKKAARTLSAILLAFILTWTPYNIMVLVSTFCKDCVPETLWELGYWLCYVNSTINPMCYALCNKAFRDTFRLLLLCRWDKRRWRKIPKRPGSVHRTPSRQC

D(1A) dopamine receptor = D(1A) dopamine receptor (Homo sapiens, UniProt P21728)
Sequence of D(1A) dopamine receptor (P21728 whole entry): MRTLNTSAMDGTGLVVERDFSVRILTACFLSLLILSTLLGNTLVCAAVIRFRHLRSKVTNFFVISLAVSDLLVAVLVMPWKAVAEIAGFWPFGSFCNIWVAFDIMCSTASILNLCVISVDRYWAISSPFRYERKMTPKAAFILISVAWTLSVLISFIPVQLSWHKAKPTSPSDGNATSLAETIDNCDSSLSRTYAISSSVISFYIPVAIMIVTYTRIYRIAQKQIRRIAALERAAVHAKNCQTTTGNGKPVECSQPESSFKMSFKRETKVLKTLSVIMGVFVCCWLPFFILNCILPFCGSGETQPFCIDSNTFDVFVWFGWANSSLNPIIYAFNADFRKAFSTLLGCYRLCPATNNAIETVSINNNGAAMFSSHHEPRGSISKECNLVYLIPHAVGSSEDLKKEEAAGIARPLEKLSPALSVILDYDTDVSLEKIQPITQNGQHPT

Acetylcholinesterase = Acetylcholinesterase (Homo sapiens, UniProt P22303); type: functional
Sequence of Acetylcholinesterase (P22303 whole entry): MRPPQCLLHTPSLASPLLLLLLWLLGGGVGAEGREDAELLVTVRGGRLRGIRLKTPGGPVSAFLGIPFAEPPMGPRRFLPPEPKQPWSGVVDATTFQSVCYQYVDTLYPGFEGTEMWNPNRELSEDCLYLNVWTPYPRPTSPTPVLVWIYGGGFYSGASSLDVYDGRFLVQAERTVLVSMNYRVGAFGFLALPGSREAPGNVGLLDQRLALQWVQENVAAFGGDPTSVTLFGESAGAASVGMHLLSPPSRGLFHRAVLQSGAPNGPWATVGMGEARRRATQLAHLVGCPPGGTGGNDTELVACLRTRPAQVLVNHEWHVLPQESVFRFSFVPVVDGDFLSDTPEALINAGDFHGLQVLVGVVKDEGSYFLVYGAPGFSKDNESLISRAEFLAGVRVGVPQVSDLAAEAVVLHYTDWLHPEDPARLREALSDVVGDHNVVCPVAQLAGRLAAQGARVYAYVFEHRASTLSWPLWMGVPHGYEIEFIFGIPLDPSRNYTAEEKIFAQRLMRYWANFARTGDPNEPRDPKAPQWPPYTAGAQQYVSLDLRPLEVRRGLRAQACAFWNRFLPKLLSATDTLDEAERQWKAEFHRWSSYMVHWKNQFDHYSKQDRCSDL

Measured: AC50
Further: assay procedure not described here.

Sequence of Sodium-dependent noradrenaline transporter (P23975 whole entry): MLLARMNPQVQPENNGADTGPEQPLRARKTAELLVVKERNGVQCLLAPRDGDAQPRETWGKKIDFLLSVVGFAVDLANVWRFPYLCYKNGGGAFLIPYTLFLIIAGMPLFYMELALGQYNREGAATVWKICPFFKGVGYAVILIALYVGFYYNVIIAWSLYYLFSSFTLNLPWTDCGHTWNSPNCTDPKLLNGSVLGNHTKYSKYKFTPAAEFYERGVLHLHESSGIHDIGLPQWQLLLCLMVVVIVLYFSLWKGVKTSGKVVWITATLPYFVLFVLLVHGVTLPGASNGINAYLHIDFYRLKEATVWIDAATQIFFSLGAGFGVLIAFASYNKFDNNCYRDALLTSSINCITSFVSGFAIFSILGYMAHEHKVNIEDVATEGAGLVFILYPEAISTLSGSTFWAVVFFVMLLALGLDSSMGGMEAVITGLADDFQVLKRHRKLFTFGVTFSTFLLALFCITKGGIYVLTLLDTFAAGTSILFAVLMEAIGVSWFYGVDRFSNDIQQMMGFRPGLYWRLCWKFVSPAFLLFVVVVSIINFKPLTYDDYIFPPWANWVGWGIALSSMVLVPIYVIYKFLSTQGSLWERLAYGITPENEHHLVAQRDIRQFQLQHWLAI
Sequence of Prostaglandin G/H synthase 1 (P23219 whole entry): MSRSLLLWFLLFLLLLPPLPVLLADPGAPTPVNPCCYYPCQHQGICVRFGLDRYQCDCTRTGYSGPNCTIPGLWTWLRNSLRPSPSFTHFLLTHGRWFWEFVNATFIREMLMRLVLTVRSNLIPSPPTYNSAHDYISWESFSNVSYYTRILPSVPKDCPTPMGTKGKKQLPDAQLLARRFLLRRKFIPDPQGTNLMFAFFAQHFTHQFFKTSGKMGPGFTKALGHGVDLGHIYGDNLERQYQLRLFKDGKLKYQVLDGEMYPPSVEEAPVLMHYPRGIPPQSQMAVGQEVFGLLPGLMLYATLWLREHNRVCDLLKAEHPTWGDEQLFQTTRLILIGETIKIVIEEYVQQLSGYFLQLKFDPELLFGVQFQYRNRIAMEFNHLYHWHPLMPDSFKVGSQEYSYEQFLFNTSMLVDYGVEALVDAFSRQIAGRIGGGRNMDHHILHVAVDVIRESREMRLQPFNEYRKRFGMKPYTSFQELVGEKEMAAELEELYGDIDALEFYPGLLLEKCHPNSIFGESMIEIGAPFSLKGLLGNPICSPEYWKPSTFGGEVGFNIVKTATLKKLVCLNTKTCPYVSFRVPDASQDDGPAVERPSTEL
Sequence of Mu-type opioid receptor (P35372 whole entry): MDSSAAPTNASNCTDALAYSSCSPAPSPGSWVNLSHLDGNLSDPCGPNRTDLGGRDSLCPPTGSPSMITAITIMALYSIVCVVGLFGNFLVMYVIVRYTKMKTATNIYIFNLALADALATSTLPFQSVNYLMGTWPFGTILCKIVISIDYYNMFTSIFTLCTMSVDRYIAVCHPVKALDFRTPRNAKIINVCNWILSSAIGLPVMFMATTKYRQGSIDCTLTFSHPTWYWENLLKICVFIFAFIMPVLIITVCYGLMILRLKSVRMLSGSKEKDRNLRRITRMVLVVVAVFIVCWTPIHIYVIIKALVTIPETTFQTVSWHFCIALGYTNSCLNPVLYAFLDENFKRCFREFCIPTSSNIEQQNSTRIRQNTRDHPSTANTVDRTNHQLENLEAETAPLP

CC(=O)Oc1c(C)c(C)c2c(c1C)CC[C@@](C)(CCC[C@H](C)CCC[C@H](C)CCCC(C)C)O2
> 30 µM: [1] | Mu-type opioid receptor | [2] | Progesterone receptor | Adenosine receptor A3 | Histamine H3 receptor | Prothrombin | [3] | Thromboxane A2 receptor | [4] | D(1A) dopamine receptor | Acetylcholinesterase

OC(c1ccccc1)(c1ccccc1)C12CC[N+](CCOCc3ccccc3)(CC1)CC2
1.07 µM: Mu-type opioid receptor
2.73 µM: [1]
0.0053 µM: [4]
> 30 µM: [2] | Progesterone receptor | Adenosine receptor A3 | Histamine H3 receptor | Prothrombin | [3] | Thromboxane A2 receptor | D(1A) dopamine receptor | Acetylcholinesterase

CC[C@@H](C(N)=O)N1CCCC1=O
> 30 µM: [1] | Mu-type opioid receptor | [2] | Progesterone receptor | Adenosine receptor A3 | Histamine H3 receptor | Prothrombin | [3] | Thromboxane A2 receptor | [4] | D(1A) dopamine receptor | Acetylcholinesterase

N=C1CCCN1Cc1[nH]c(=O)[nH]c(=O)c1Cl
> 30 µM: [1] | Mu-type opioid receptor | [2] | Progesterone receptor | Adenosine receptor A3 | Histamine H3 receptor | Prothrombin | [3] | Thromboxane A2 receptor | [4] | D(1A) dopamine receptor | Acetylcholinesterase

CCC(CC)(CC(=O)Nc1cccc(/C=C/c2nc(C3CCC3)cs2)c1)C(=O)O
> 3 µM: [4]
> 30 µM: [1] | Mu-type opioid receptor | [2] | Progesterone receptor | Histamine H3 receptor | Prothrombin | D(1A) dopamine receptor | Acetylcholinesterase
> 10 µM: [3] | Thromboxane A2 receptor

CC(=O)[C@@]1(O)CC[C@H]2[C@@H]3C=C(C)C4=CC(=O)CC[C@]4(C)[C@H]3CC[C@@]21C
0.285 µM: Progesterone receptor
15.3 µM: [4]
> 30 µM: [1] | Mu-type opioid receptor | [2] | Adenosine receptor A3 | Histamine H3 receptor | Prothrombin | [3] | Thromboxane A2 receptor | D(1A) dopamine receptor | Acetylcholinesterase

CCOC(=O)[C@H](CCc1ccccc1)N[C@@H](C)C(=O)N1CC2(C[C@H]1C(=O)O)SCCS2
> 30 µM: [1] | Mu-type opioid receptor | [2] | Progesterone receptor | Adenosine receptor A3 | Histamine H3 receptor | Prothrombin | [3] | Thromboxane A2 receptor | [4] | D(1A) dopamine receptor | Acetylcholinesterase
